According to ChEMBL document CHEMBL5104095, “Proteolysis targeting chimera (PROTAC) in drug discovery paradigm: Recent progress and future challenges” (Eur J Med Chem, 2021):
Blank lines part the entries; values can stand above or below the compound they belong to.

What was measured:
[1] = target: von Hippel-Lindau disease tumor suppressor/Focal adhesion kinase 1 (Homo sapiens, UniProt P40337+Q05397); assay: PROTAC activity at VHL/FAK in human PC-3 cells assessed as induction of FAK degradation incubated for 24 hrs by immunoblot analysis; type: cell-based
[2] = target: von Hippel-Lindau disease tumor suppressor/Focal adhesion kinase 1 (Homo sapiens) (UniProt Q05397+P40337); assay: PROTAC activity at VHL/FAK in human PC-3 cells assessed as induction of FAK degradation incubated for 24 hrs by immunoblot analysis relative to control; type: cell-based
[3] = target: Protein cereblon/Tyrosine-protein kinase BTK (Homo sapiens, UniProt Q06187+Q96SW2, C481S); assay: PROTAC activity at CRBN/BTK C481S mutant transfected in human HBL1 cells assessed as induction of BTK C481S degradation incubated for 36 hrs by Western blot analysis; type: cell-based
Protein cereblon/Tyrosine-protein kinase BTK, sequence (Q06187 2-659 C481S limits assumed, stated change not applied): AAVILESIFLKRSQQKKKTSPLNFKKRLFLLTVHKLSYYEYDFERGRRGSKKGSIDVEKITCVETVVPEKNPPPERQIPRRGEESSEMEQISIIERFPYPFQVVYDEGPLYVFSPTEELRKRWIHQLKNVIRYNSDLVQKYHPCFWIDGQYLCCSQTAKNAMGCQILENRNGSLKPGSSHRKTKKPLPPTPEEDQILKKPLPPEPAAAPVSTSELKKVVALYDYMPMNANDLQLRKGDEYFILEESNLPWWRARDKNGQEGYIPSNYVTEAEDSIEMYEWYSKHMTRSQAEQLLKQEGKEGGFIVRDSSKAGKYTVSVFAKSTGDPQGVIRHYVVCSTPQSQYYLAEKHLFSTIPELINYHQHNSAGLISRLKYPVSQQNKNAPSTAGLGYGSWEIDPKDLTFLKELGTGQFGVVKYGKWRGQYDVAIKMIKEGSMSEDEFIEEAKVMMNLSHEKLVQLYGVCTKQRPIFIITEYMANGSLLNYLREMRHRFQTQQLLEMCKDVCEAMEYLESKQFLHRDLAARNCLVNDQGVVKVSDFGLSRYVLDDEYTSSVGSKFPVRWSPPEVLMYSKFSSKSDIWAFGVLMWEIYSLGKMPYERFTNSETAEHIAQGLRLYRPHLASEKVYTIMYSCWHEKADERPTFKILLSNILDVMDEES
Protein cereblon/Tyrosine-protein kinase BTK, sequence (Q96SW2 whole entry, stated change not applied): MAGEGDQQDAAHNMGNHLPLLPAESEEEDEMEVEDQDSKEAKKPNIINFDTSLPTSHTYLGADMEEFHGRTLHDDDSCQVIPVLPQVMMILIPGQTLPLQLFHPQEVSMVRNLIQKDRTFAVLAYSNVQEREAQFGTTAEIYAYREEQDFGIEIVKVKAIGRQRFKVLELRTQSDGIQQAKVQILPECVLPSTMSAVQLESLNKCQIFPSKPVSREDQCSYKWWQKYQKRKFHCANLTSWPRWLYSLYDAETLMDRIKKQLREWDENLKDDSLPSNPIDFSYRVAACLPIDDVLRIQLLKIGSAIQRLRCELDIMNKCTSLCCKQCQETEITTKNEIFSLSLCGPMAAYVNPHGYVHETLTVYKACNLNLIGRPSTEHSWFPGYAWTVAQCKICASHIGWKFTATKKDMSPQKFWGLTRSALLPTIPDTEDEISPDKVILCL

[4] = target: IAP-Tyrosine-protein kinase BTK (Homo sapiens, UniProt P98170+Q06187+Q13489+Q13490); assay: PROTAC activity at IAP/BTK in human THP-1 cells assessed as reduction in BTK level incubated for 16 hrs by immunoblot analysis; type: cell-based
Protein cereblon-NS3 = Protein cereblon-NS3 (Hepacivirus hominis, UniProt A3EZJ3+Q96SW2); assay: PROTAC activity at CRBN/NS3 of HCV assessed as induction of NS3-eGFP-2A-mCherry degradation incubated for 4 hrs by flow cytometry
Protein cereblon-NS3, sequence (A3EZJ3 whole entry): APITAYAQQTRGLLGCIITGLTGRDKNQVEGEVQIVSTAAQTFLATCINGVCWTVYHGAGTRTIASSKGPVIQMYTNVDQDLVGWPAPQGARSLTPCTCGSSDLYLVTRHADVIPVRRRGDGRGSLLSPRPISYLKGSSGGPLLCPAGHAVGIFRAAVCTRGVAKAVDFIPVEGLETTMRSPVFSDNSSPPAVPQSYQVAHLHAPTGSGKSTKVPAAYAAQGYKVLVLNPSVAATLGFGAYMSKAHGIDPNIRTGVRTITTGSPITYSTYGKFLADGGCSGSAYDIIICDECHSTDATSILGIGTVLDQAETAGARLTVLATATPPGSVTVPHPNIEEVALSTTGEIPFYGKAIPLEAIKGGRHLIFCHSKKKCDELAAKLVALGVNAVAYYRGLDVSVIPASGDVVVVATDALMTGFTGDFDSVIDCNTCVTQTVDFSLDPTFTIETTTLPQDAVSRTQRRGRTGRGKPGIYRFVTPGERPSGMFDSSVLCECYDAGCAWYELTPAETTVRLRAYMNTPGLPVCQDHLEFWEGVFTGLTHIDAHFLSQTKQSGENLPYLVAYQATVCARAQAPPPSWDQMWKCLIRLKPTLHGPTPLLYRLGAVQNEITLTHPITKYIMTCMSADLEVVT
Protein cereblon-NS3, sequence (Q96SW2 whole entry): as the sequence (Q96SW2 whole entry, stated change not applied) above

HeLa = assay: PROTAC activity at VHL/PRC2 in human HeLa cells assessed as induction of PRC2 degradation incubated for 24 hrs by Western blot analysis relative to control; type: cell-based
[5] = PROTAC activity at VHL/PRC2 in human HeLa cells assessed as induction of PRC2 degradation incubated for 24 hrs by Western blot analysis; type: cell-based
[6] = target: T1, Protein cereblon/Indoleamine 2,3-dioxygenase 1 (Homo sapiens, UniProt P14902+Q96SW2); assay: PROTAC activity at CRBN/IDO1 in human HeLa cells assessed as induction of IDO1 degradation incubated for 24 hrs by immunoblot analysis relative to control; type: cell-based
Target sequence in this assay (P14902 whole entry, looked up): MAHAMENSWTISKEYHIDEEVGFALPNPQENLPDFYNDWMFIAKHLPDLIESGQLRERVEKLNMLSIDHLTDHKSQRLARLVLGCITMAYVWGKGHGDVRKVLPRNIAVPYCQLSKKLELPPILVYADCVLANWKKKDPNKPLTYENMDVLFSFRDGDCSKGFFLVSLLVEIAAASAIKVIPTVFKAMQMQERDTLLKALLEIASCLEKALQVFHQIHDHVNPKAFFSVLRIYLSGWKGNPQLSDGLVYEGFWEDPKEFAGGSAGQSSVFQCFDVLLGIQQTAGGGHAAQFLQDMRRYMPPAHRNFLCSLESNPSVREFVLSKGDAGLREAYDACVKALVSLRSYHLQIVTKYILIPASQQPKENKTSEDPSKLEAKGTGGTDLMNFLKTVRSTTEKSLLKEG
Target sequence in this assay (Q96SW2 whole entry, looked up): as the sequence (Q96SW2 whole entry, stated change not applied) above

[7] = target: T1, Protein cereblon/Indoleamine 2,3-dioxygenase 1; assay: PROTAC activity at CRBN/IDO1 in human HeLa cells assessed as induction of IDO1 degradation incubated for 24 hrs by immunoblot analysis; type: cell-based
Target sequence in this assay (P14902 whole entry): as the sequence (P14902 whole entry, looked up) above
Target sequence in this assay (Q96SW2 whole entry): as the sequence (Q96SW2 whole entry, stated change not applied) above

PC-3 = assay: Antiproliferative activity against human PC-3 cells assessed as inhibition of cell proliferation incubated for 48 hrs by CCK8 assay; type: functional, cell-based; conditions: PC-3, 48 h
[8] = target: T2, von Hippel-Lindau disease tumor suppressor/Mitogen-activated protein kinase 14 (Homo sapiens, UniProt P40337+Q16539); assay: PROTAC activity at VHL/p38alpha in human MDA-MB-231 cells assessed as induction of p38alpha degradation incubated for 24 hrs by Western blot analysis; type: cell-based
T2 sequence (Q16539 whole entry): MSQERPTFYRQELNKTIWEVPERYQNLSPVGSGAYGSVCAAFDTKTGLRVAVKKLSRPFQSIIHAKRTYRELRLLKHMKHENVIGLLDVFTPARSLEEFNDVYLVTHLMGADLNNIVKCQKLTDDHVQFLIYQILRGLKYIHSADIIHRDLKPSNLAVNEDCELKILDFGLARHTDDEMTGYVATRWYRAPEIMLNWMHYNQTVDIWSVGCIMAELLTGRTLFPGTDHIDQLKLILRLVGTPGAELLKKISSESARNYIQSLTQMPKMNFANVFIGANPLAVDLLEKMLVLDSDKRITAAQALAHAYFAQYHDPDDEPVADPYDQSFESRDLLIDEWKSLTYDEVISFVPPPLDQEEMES
T2 sequence (P40337 whole entry): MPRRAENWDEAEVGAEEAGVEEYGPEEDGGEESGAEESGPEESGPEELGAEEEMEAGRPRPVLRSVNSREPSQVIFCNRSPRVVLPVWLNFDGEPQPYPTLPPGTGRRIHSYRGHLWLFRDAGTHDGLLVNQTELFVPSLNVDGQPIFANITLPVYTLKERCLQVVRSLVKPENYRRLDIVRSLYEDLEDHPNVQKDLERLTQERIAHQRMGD

[9] = target: von Hippel-Lindau disease tumor suppressor/Mitogen-activated protein kinase 14 (Homo sapiens) (UniProt Q16539+P40337); assay: PROTAC activity at VHL/p38alpha in human MDA-MB-231 cells assessed as induction of p38alpha degradation incubated for 24 hrs by Western blot analysis relative to control; type: cell-based
[10] = target: T2, von Hippel-Lindau disease tumor suppressor/Mitogen-activated protein kinase 14; assay: PROTAC activity at VHL/p38alpha (unknown origin) assessed as dissociation constant by competitive binding assay
[11] = target: T3, von Hippel-Lindau disease tumor suppressor/Tyrosine-protein kinase ABL1/Breakpoint cluster region protein (Homo sapiens, UniProt P00519+P11274+P40337); assay: PROTAC activity at VHL/BCR-Abl (unknown origin) assessed as induction of BCR-Abl degradation by cell based assay relative to control
[12] = target: T3, von Hippel-Lindau disease tumor suppressor/Tyrosine-protein kinase ABL1/Breakpoint cluster region protein; assay: PROTAC activity at VHL/BCR-Abl (unknown origin) assessed as induction of BCR-Abl degradation by cell based assay
[13] = target: Protein cereblon/Peptidyl-prolyl cis-trans isomerase FKBP1A (Homo sapiens, UniProt P62942+Q96SW2); assay: PROTAC activity at CRBN/FKBP12 in human Jurkat cells assessed as induction of FKBP12 degradation incubated for 12 hrs by Western blot analysis; type: cell-based

Compound: Nc1ncnc2c1c(-c1ccc(Oc3ccccc3)cc1)nn2[C@@H]1CCCN(C(=O)c2cn(CCOCCOCCOCCCc3cccc4c3CN(C3CCC(=O)NC3=O)C4=O)nn2)C1 (some centres not stated)
EC50 [3]: 29 nM

Compound: CN[C@@H](C)C(=O)N[C@H](C(=O)N1C[C@@H](NC(=O)COCCOCCOCCOCCN2CCN(CCCC(=O)N3CCC[C@@H](n4nc(-c5ccc(Oc6ccccc6)cc5)c5c(N)ncnc54)C3)CC2)C[C@H]1C(=O)N[C@@H]1CCCc2ccccc21)C1CCCCC1
EC50 [4]: 200 nM

Compound: Cc1ncsc1-c1ccc(CNC(=O)[C@@H]2C[C@@H](O)CN2C(=O)[C@@H](NC(=O)CCCNC(=O)c2ccc(-c3cnc(NCc4ccco4)n4cnnc34)cc2)C(C)(C)C)cc1
Emax (HeLa): > 80%
EC50 [5]: < 700 nM

Compound: COc1cc2nc(N3CCN(C(=O)c4ccco4)CC3)nc(N)c2cc1OC [PRAZOSIN]
IC50 (PC-3): 11.7 µM

Compound: Cc1ncsc1-c1ccc(CNC(=O)[C@@H]2C[C@@H](O)CN2C(=O)[C@@H](NC(=O)COCCOc2ccc(-c3cc(Nc4ccc(OC(F)(F)F)cc4)ncn3)cc2)C(C)(C)C)cc1
Emax [11]: > 95%
EC50 [12]: 340 nM

Results, then the compound that gave them:

EC50 [1]: 3 nM
Emax [2]: 99%
Compound: Cc1ncsc1-c1ccc(CNC(=O)[C@@H]2C[C@@H](O)CN2C(=O)[C@@H](NC(=O)CCOCCOc2ccc(Nc3ncc(C(F)(F)F)c(NCc4cccc(N(C)S(C)(=O)=O)c4)n3)cc2)C(C)(C)C)cc1

EC50 (Protein cereblon-NS3): 50 nM
Compound: CCC[C@H](NC(=O)[C@@H]1[C@H]2CCC[C@H]2CN1C(=O)[C@@H](NC(=O)[C@@H](NC(=O)c1cnc(C(=O)NCCOCCOCCOc2cc3c4c(cccc4c2)C(=O)N(C2CCC(=O)NC2=O)C3=O)cn1)C1CCCCC1)C(C)(C)C)C(=O)C(=O)NC1CC1 (some centres not stated)

Emax [6]: 93%
EC50 [7]: 2840 nM
Compound: O=C1CCC(N2C(=O)c3cccc(NCCOCCOCCOCCOCCOCCOCCOCCNCCNc4nonc4/C(=N/O)Nc4ccc(F)c(Br)c4)c3C2=O)C(=O)N1 (configuration not stated)

EC50 (Protein cereblon-NS3): 489 nM
Compound: CCC[C@H](NC(=O)[C@@H]1[C@H]2CCC[C@H]2CN1C(=O)[C@@H](NC(=O)[C@@H](NC(=O)c1cnc(C(=O)NCCOCCOCCNc2cccc3c2C(=O)N(C2CCC(=O)NC2=O)C3=O)cn1)C1CCCCC1)C(C)(C)C)C(=O)C(=O)NC1CC1 (some centres not stated)

EC50 [8]: 210 nM
Emax [9]: 91%
Kd [10]: 11 µM
Compound: COc1cc2c(Oc3ccc(NC(=O)C4(C(=O)Nc5ccc(F)cc5)CC4)cc3F)cccc2cc1OCCCOCCCOCCC(=O)N[C@H](C(=O)N1C[C@H](O)C[C@H]1C(=O)NCc1ccc(-c2scnc2C)cc1)C(C)(C)C

EC50 [13]: < 0.3 nM
Compound: CO[C@H]1C[C@@H]2CC[C@@H](C)[C@@](O)(O2)C(=O)C(=O)N2CCCC[C@H]2C(=O)O[C@H]([C@@H](C)C[C@@H]2CC[C@@H](OCCOCc3cn(CCOCCOCCNc4cccc5c4C(=O)N(C4CCC(=O)NC4=O)C5=O)nn3)[C@H](OC)C2)CC(=O)[C@H](C)/C=C(\C)[C@@H](O)[C@H](OC)C(=O)[C@H](C)C[C@H](C)/C=C/C=C/C=C/1C (some centres not stated)
